The source of these data is patent US20050288333A1 (priority 2004, published 2005).

Counter-ions that a name gives are not always drawn. Like-named read-outs stand apart in the source and are kept apart here.

In data set [1] the target is T1, α4β2 nicotinic acetylcholine receptor (Rattus norvegicus, UniProt P09483+P12390).
T1 construct: from tissue; host or cells: rat cerebral cortex membranes
The data set is described as follows: [3H]-N-methylcarbamyl choline (3H-MCC) displacement, rat cerebral cortex membranes. The format is binding. The procedure:
Binding at the α4β2 nicotinic acetyicholine receptor can be measured as described in Abood, et al., Biochem. Pharmacol., 1986, 35:4199, or in Boksa, et al, Eur. J Pharmacol., 1987, 139:323. In essence, washed rat cerebral cortex membranes suspended in ice-cold saline (pH 7.4) were incubated with [^3H]-N-methylcarbamyl choline (^3H—MCC) for 60 minutes before being washed free of unbound radioligand with two rapid washes of the saline solution, using vacuum filtration. The glass filters used to collect the membranes for scintillation counting were pre-equilibrated with polyethyleneimine to reduce ligand binding by the filters.
Atropine sulfate at 12 μM was used to block muscarinic binding sites. Non-specific binding was assessed in the presence of 100 μM carbamylcholine. Thus, the Kd values of the test compounds were determined by their ability to compete for [^3H-acetyl]choline or ^3H—MCC binding. […] Some representative compounds of Formula I were tested for their ability to displace [^3H]—MCC. The Kl values presented in the table are mean values obtained from two separate experiments. […] In Table 3, “NA.” means that the data are not available.

The next data set relates to α7 receptors. The data set is described as follows: Residual inhibition of ACh response after exposure to compound, oocytes. The format is cell-based. The note with it: 100 pM compound. The procedure:
Peak currents were measured for responses of α4β2 receptors to agonist application, because desensitization of this receptor subtype was slow enough not to affect the concentration-response relation measured in this manner. Currents resulting from agonist application to the more rapidly desensitizing α7 receptors were integrated over a period of […] after application commenced. To compare data obtained from different oocytes, a standard response normalization procedure was used. Agonist responses of a particular oocyte were always normalized relative to its response to a standard acetylcholine (ACh) control. Before actual measurements of agonist properties, several ACh pulses separated by 5-mm intervals were applied until the responses of the oocyte to ACh became steady. After washing for 5 mm, the peak current response to the test compound was measured. After another 5-mm washing period, ACh was again applied to measure the residual responsiveness of the receptors to ACh after exposure to the test substance. The concentration-response data were fitted with a modified Hill equation, I=Imax [agonist]^nH/([agonist]^nH+EC50), to estimate apparent efficacy (normalized maximal response) and EC50.
The numbers in parentheses in Table 2 are calculated EC50, values for just the ionized forms.

The next data set concerns the target α4β2 nicotinic receptors (Rattus norvegicus, UniProt P09483+P12390). The data set can be described thus: [3H]cytisine binding displacement, washed whole rat brain membranes.
The conditions of data set [2]: Kitagawa et al. 2003; cited from earlier work.
[3] abbreviates: displacement of [3H]-MCC, mean of two experiments, Cheng-Prusoff with Kd 5 nM, read-out: α4β2 Ki.
The mark [4] stands for this setting: inhibitory concentration of the ionized form, calculated assuming only the cationic form interacts, read-out: [3H] Cytisine Binding Ki(Ion).
[5] abbreviates: rat brain membranes, radioligand 1 nM, mean±S.E.M. of three experiments, read-out: [3H] Cytisine Binding Ki ± S.E.M.

T1 sequence (P09483 31-630): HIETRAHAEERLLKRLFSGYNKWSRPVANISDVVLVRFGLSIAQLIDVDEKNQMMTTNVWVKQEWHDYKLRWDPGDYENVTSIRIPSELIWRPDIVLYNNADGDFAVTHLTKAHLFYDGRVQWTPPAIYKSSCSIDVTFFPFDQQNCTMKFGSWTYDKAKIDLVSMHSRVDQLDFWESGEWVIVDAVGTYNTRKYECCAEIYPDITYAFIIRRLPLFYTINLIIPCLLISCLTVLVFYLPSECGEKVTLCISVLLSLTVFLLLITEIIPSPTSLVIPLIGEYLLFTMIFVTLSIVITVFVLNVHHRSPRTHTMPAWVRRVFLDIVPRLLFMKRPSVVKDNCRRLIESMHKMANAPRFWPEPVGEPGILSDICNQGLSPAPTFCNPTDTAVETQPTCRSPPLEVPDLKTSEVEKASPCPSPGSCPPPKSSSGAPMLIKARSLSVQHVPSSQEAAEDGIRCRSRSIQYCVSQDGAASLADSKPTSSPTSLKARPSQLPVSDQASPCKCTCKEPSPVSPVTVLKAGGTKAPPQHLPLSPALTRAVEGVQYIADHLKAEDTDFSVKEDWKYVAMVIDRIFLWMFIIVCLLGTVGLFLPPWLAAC
T1 sequence (P12390 25-500): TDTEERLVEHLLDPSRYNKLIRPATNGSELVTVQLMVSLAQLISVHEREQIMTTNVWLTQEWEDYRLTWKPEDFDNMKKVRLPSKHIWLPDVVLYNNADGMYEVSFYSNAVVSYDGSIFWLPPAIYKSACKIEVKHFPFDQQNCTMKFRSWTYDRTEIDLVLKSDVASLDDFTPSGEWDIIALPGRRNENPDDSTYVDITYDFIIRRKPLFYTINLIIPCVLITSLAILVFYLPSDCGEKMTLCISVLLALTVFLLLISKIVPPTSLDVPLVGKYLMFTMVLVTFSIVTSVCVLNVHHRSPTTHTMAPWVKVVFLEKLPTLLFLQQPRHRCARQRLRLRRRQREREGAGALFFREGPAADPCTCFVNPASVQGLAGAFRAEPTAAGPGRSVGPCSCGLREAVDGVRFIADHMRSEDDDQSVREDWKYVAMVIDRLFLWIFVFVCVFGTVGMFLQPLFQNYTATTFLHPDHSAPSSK
Sequence of α4β2 nicotinic receptors (P09483 31-630): as the sequence (P09483 31-630) above
Sequence of α4β2 nicotinic receptors (P12390 25-500): as the sequence (P12390 25-500) above

One may read the Ki as the dissociation constant of the complex between target and ligand, obtained from inhibition or displacement. For the molecule “6′-Methyl-3-(2,4-dimethoxybenzylidene)anabaseine [GTS-57]”, the Ki in data set [1] (setting [3]) came out at 0.5 µM.
Regarding `CN(C)c1ccc(C=CC=C2CCCN=C2c2cccnc2)cc1` [DMACA, 3-(4-Dimethylaminocinnamylidene)anabaseine], the Ki in data set [1] (read-out: α4β2 Ki) was found to be 0.4 µM.
On to `COc1ccc(C=C2CCCN=C2c2cccnc2)cc1` [GTS-2, 3-(4-Methoxybenzylidene)anabaseine], for which the Ki in data set [1] came to 0.32 µM.
As for `O=[N+]([O-])c1ccc(C=C2CCCN=C2c2cccnc2)cc1` [GTS-3, 3-(4-Nitrobenzylidene)anabaseine], in data set [1] (read-out: α4β2 Ki), the Ki is over 5 µM.
For the molecule `N#Cc1ccc(C=C2CCCN=C2c2cccnc2)cc1` [GTS-5, 3-(4-Cyanobenzylidene)anabaseine], the Ki in data set [1] (read-out: α4β2 Ki) was over 5 µM.
Same read-out and setting: in the case of `Oc1ccc(C=C2CCCN=C2c2cccnc2)cc1` [GTS-7, 3-(4-Hydroxybenzylidene)anabaseine] it was 0.025 µM; in that of `Clc1ccc(C=C2CCCN=C2c2cccnc2)cc1` [GTS-8, 3-(4-Chlorobenzylidene)anabaseine], over 5 µM; in that of `Nc1ccc(C=C2CCCN=C2c2cccnc2)cc1` [GTS-13, 3-(4-Aminobenzylidene)anabaseine], 0.17 µM.
Same read-out and setting: under `CN(C)CCCOc1ccc(C=C2CCCN=C2c2cccnc2)cc1` [GTS-15, 3-(4-Dimethylaminopropoxy-benzylidene)anabaseine] stands 1.6 µM.
Take `COc1ccccc1C=C1CCCN=C1c1cccnc1` [GTS-16, 3-(2-Methoxybenzylidene)anabaseine]: the Ki in data set [1] (read-out: α4β2 Ki) came out at 0.83 µM.
On to `COc1cccc(C=C2CCCN=C2c2cccnc2)c1` [GTS-20, 3-(3-Methoxybenzylidene)anabaseine], for which affinity in data set [1] was put at a Ki of 4 µM.
Take `COc1ccc(/C=C2\CCCN=C2c2cccnc2)c(OC)c1` [GTS-21, 3-(2,4-Dimethoxybenzylidene)anabaseine]: the “residual inhibition (reduced response to ACh 5 min after washing)” value in the data set with α7 receptors was about 50%. Also, the Ki at α4β2 nicotinic receptors (setting [4]) was 0.158 µM; on α4β2 nicotinic receptors (setting [5]) it was 0.253 ± 0.037 µM; in data set [1] (read-out: α4β2 Ki) it was 0.12 µM. Also, the “human toxicity in phase I clinical trial” value in data set [2] is “did not display significant human toxicity”.
Regarding `COc1cc(C=C2CCCN=C2c2cccnc2)ccc1O` [GTS-23, 3-(3-Methoxy-4-hydroxybenzylidene)anabaseine], the Ki in data set [1] (read-out: α4β2 Ki) was over 5 µM.
On to `Cc1ccc(C2=NCCCC2)cn1` [GTS-26, 6′-Methylanabaseine], for which, in data set [1], the Ki was determined as 0.026 µM.
On the same count and under the same terms, under `Cc1ncccc1C1=NCCCC1` [GTS-27, 2′-Methylanabaseine] stands 33 µM; under `Cc1ccncc1C1=NCCCC1` [GTS-28, 4′-Methylanabaseine], 3.8 µM.
Regarding `COc1cc(OC)c(C=C2CCCN=C2c2cccnc2)c(OC)c1` [GTS-35, 3-(2,4,6-Trimethoxybenzylidene)anabaseine], the Ki in data set [1] (read-out: α4β2 Ki) was found to be 0.17 µM.
Still for that read-out and setting: under `Clc1ccc(C=C2CCCN=C2c2cccnc2)c(Cl)c1` [GTS-38, 3-(2,4-Dichlorobenzylidene)anabaseine] stands 2 µM; under `Cc1ccc(C=C2CCCN=C2c2cccnc2)c(C)c1` [GTS-39, 3-(2,4-Dimethylbenzylidene)anabaseine], 1 µM.
The same measure, in the same setting: under `Cc1cc(C)c(C=C2CCCN=C2c2cccnc2)c(C)c1` [GTS-40, 3-(2,46,-Trimethylbenzylidene)anabaseine] stands 0.5 µM; under `C(=C1CCCN=C1c1cccnc1)c1ccco1` [GTS-43, 3-(2-Furylidene)anabaseine], 0.64 µM; under `C(=Cc1ccco1)C=C1CCCN=C1c1cccnc1` [GTS-44, 3-(2-Furylpropenylidene)anabaseine], 0.8 µM.
The same measure, in the same setting: in the case of `C(=C1CCCN=C1c1cccnc1)c1ccoc1` [GTS-45, 3(3-Furylidene)anabaseine] it was 0.86 µM.
`Cc1ccc(C=C2CCCN=C2c2cccnc2)cc1` [GTS-48, 3-(4-Methylbenzylidene)anabaseine]: the inhibition constant (Ki) in data set [1] (read-out: α4β2 Ki) is 2 µM.
Take `COc1ccc(C=C2CCCN=C2c2cccnc2)c(O)c1` [GTS-51, 3-(2-Hydroxy-4-methoxybenzylidene)anabaseine]: the Ki on α4β2 nicotinic receptors (setting [4]) was 0.128 µM; at α4β2 nicotinic receptors (setting [5]) it was 0.387 ± 0.025 µM; in data set [1] (read-out: α4β2 Ki) it was 1.5 µM.
The matching figures for `Oc1ccc(C=C2CCCN=C2c2cccnc2)c(O)c1` [GTS-52, 3-(2,4-Dihydroxybenzylidene)anabaseine]: 0.103 µM, 0.206 ± 0.016 µM and 0.45 µM.
Take `CCCOc1ccc(C=C2CCCN=C2c2cccnc2)c(OCCC)c1` [GTS-53, 3-(2,4-Dipropoxybenzylidene)anabaseine]: the Ki in data set [1] (read-out: α4β2 Ki) was found to be 4.5 µM.
The same measure, in the same setting: under `CC(C)Oc1ccc(C=C2CCCN=C2c2cccnc2)c(OC(C)C)c1` [GTS-54, 3-(2,4-Diisopropoxybenzylidene)anabaseine] stands 1 µM.
With `CCCCCOc1ccc(C=C2CCCN=C2c2cccnc2)c(OCCCCC)c1` [GTS-55, 3-(2,4-Dipentoxybenzylidene)anabaseine], the Ki in data set [1] (read-out: α4β2 Ki) amounted to 2.5 µM.
On the same count and under the same terms, under `CCCCCOc1ccc(C=C2CCCN=C2c2cccnc2)c(O)c1` [GTS-56, 3-(2-Hydroxy-4-pentoxybenzylidene)anabaseine] stands 0.25 µM.
Consider `COc1ccc(C=C2CCC[N+](C)=C2c2cccnc2)c(OC)c1` [GTS-58, 1-Methyl-3-(2,4-djmethoxybenzylidene)anabaseine trifluoroacetate], for which, in data set [1] (setting [3]), the Ki is over 5 µM.
On to `Cc1cncc(C2=NCCCC2)c1` [GTS-60, 5′-Methylanabaseine], for which the Ki in data set [1] was 0.13 µM.
`COc1ccc(C=C2CCCN=C2c2ccccc2)c(OC)c1` [GTS-63, 2-Phenyl-3-(2,4-dimethoxybenzylidene)-4,5,6-trihydropyridine]: in data set [1] (read-out: α4β2 Ki), the inhibition constant Ki is over 5 µM.
